From US5336485A, “Method for protecting animals against tacrine induced cytotoxic injury using sterol compounds” (priority 1993, dated 1994)
Structures can show the parent of a compound that is named as a salt.

What was measured:
canine hepatocytes [1] = experiment: EMS-induced cytotoxicity in canine hepatocytes; format: cell-based; settings: 25 μM, 50 mM EMS
rat hepatocytes [2] = experiment: EMS-induced lipid peroxidation in rat hepatocyte suspensions; format: cell-based; settings: 50 mM EMS
L1210 leukemia cells [3] = experiment: Doxorubicin in L1210 leukemia bearing CDF1 mice; format: in vivo, mouse; settings: alpha-TS tris salt 100 mg/kg ip
Method: The experiments were conducted in accordance with NCI Protocol 1,100. FIGS. 8a-d show the experimental results obtained when male CDF1 mice (n=6) received either vehicle only or 100mg/kg body weight i.p. dose of either alpha-TS or cholesteryl succinate 20 hours prior to DOX administration. FIGS. 8a-d respectively show the results obtained when the mice received 10, 15, 20, and 25 mg DOX/kg body weight. […] FIGS. 9a-d show the experimental results obtained when male CDF1 mice ([…]) were injected (i.p.) with 10^6 murine L1210 leukemia cells followed immediately by an injection of alpha-TS tris salt (100 mg/kg, i.p.) or saline injection (vehicle), and twenty hours later (Day=0) each mouse in three of the groups was i.p. injected with 15, 20, or 25 mg DOX/kg body weight ([…]). Survival was monitored for twenty days.

variety of cell types = settings: cited from earlier work
rat hepatocytes [4] = experiment: Cellular alpha-tocopherol and tocopherol ester content of rat hepatocytes; settings: for Hepatocyte Concentration Alpha-T / Hepatocyte Concentration Alpha-TS: EMS 3 h
Method: At each time-point, rapid separation of viable from non-viable hepatocytes and medium was accomplished by the dibutyl phthalate centrifugation method. Cell viability was monitored hourly by measuring LDH leakage with a Cobas Analyzer and intracellular [K^+ ]with a flame photometer. LDH was routinely measured in the medium while intracellular K^+ was measured in the 10% perchloric acid lysate of viable cells. Lipid peroxidation was determined by measuring TBA reactants in the medium. […] The samples were diluted with 0.3 ml 1% ascorbate in 0.1 M SDS, 0.4 ml ethanol, sonicated and extracted once with 0.8 ml hexane. Next, the hexane extract was evaporated to dryness with N2, the residue dissolved in 2.5% ascorbate in methanol (1 ml) and analyzed (100 μl) by high-performance liquid chromatograph (HPLC). […] The mobile phase, 95% MeOH was run isocratically and the HPLC retention times for delta and alpha-tocopherol were approximately eleven and sixteen minutes, respectively. […] Following the addition of 0.2 ml 4 M HC1, the neutralized KOH-MeOH extracted with 0.8 ml hexane. […] A standard curve for each tocopherol congener was run with every assay. […] Only viable cells were monitored in the laboratory procedures.
The hepatocytes were subsequently exposed to 50mM EMS for three hours.

[5] = system: human neuroblastoma cells; settings: 10 μM; cited from earlier work
[6] = system: mouse neuroblastoma cells NBP2; settings: 10 μM; cited from earlier work
canine hepatocytes [7] = experiment: Intracellular K+ of canine hepatocytes exposed to EMS; format: cell-based; settings: 25 μM, 50 mM EMS
Excerpt: Medzhradsky, Biochem. Med. 13:164 (1975), has noted that the cell's ability to maintain its intracellular concentration of potassium (K^+) is an excellent indicator of the metabolic integrity of the cell. A concentration gradient exists for K^+ with greater concentrations found intracellularly. To maintain this gradient, the cell is dependent on the action of the Na^+ -K^+ ATPase pump and an adequate supply of ATP. As cellular ATP levels decline, the ATPase pump is unable to maintain the gradient resulting in the loss of intracellular K^+ by equilibration with the extracellular space. Because the maintenance of cellular metabolic processes is essential to the continual repair and survival of cells, organ systems, and organisms, the effect of alpha-TS on the metabolic integrity of rat liver cells during a toxic insult was investigated by measuring intracellular K^+ levels. FIGS. 2a-2b show the response of rat and canine hepatocytes, respectively, exposed to 50 mM EMS. […] The response curves shown in FIGS. 2a and 2b indicate that alpha-TS under physiological conditions can maintain the metabolic integrity of animal hepatocytes during a toxic insult.
Only viable cells were monitored in the laboratory procedures.

male Sprague-Dawley rats = experiment: Energy status of rat tissue; format: in vivo; settings: 100 mg/kg ip, 24 h
Method: An in vivo experiment was performed to determine the effect of alpha-TS on the energy status of rat tissues. Male Sprague-Dawley rats were administered alpha-TS (100 mg/kg, single ip dose) or olive oil (vehicle only, 0.2 ml, single ip dose). Three rats were used per treatment. The rats fasted for 24 hours after ip dosage prior to sacrifice and analysis of tissues.

rat hepatocytes [8] = settings: cited from earlier work
[9] = Tissue distribution of alpha-tocopherol and alpha-tocopherol ester in rats; format: in vivo, rat; settings: 48 h after single dose
epidermoid carcinomas = settings: local administration; cited from earlier work
L1210 leukemia cells [10] = settings: 100 mg/kg ip
[11] = 50 mM EMS + 25 μM alpha-TS + 100 μM Bis-(p-nitrophenyl) phosphate
[12] = 50 mM EMS + 25 μM alpha-TS + 100 μM Diethyl p-nitrophenyl phosphate

Cc1c(C)c2c(c(C)c1OC(=O)CCC(=O)O)CC[C@@](C)(CCC[C@H](C)CCC[C@H](C)CCCC(C)C)O2 [alpha-TS, d-alpha-tocopheryl succinate]
protection from lethal effects of EMS (canine hepatocytes [1]): protected both rat and canine hepatocytes from the lethal effects | Lipid Peroxidation (rat hepatocytes [2]; 5 Hrs, concentrations as cell death (Table 15)): 0.9 nmolMDA/10^6 cells | inhibition at 25 µM (rat hepatocytes [2]; Rattus norvegicus, Hepatocyte, 25 μM): 100% | survival of DOX treated tumor bearing mice (FIG. 9b) (L1210 leukemia cells [3]; DOX 10 mg/kg): no effect on the survival of DOX treated animals | survival of tumor bearing mice at higher DOX (L1210 leukemia cells [3]; DOX 15 and 25 mg/kg): significant protection from DOX | protection against carcinogenic effects of radiation and cancer causing chemicals (variety of cell types): protects a variety of cell types against the carcinogenic effects of radiation and cancer causing chemicals | cellular alpha-TS content (rat hepatocytes [4]; 0.5 μM): approximately 0.025 nmoles/10^6 cells | Hepatocyte Concentration Alpha-T (rat hepatocytes [4]; 2.0 μM): 0.4 ± 0.1 nmol/10^6 cells | Hepatocyte Concentration Alpha-TS (rat hepatocytes [4]; 2.0 μM): 0.2 ± 0.1 nmol/10^6 cells | Hepatocyte Concentration Alpha-T (rat hepatocytes [4]; 10 μM): 0.8 ± 0.1 nmol/10^6 cells | Hepatocyte Concentration Alpha-TS (rat hepatocytes [4]; 10 μM): 0.7 ± 0.1 nmol/10^6 cells | cellular accumulation rate of alpha-TS (rat hepatocytes [4]; 25 μM dose): 1.65 nmol/10^6 cells/hr | cellular release rate of succinate (as measured by alpha-tocopherol release) (rat hepatocytes [4]; 25 μM dose): 0.65 nmol/10^6 cells/hr | Hepatocyte Concentration Alpha-T (rat hepatocytes [4]; 25 μM): 0.9 ± 0.1 nmol/10^6 cells | Hepatocyte Concentration Alpha-TS (rat hepatocytes [4]; 25 μM): 2.5 ± 0.1 nmol/10^6 cells | Cellular Tocopherol ester (rat hepatocytes [4]; 25 μM, Table 2): 2.6 nmoles/10^6 cells | Cellular alpha-T (rat hepatocytes [4]; 25 μM, Table 2): 0.7 nmoles/10^6 cells | Hepatocyte Concentration Alpha-T (rat hepatocytes [4]; 250 μM): 0.9 ± 0.1 nmol/10^6 cells | Hepatocyte Concentration Alpha-TS (rat hepatocytes [4]; 250 μM): 7.6 ± 1.7 nmol/10^6 cells | Cellular alpha-T (rat hepatocytes [4]; 50 mM EMS + 25 μM alpha-TS): .81 ± .05 nmoles/10^6 cells | Cellular alpha-TS (rat hepatocytes [4]; 50 mM EMS + 25 μM alpha-TS): 2.73 ± .67 nmoles/10^6 cells | Cellular alpha-T (rat hepatocytes [4]; [11]): .20 ± .05 nmoles/10^6 cells | Cellular alpha-TS (rat hepatocytes [4]; [11]): 2.61 ± .61 nmoles/10^6 cells | Cellular alpha-T (rat hepatocytes [4]; [12]): .19 ± .05 nmoles/10^6 cells | Cellular alpha-TS (rat hepatocytes [4]; [12]): 2.56 ± .24 nmoles/10^6 cells | Hepatocyte Concentration Alpha-T (rat hepatocytes [4]; .5 μM): 0.2 ± 0.1 nmol/10^6 cells | tumor cell growth [5]: inhibits tumor cell growth | tumor cell growth [6]: inhibits tumor cell growth | intracellular K+ during EMS insult (canine hepatocytes [7]): no loss of intracellular K+ | ATP, Blood (male Sprague-Dawley rats): 647 ± 29 nmol/g | ATP, Brain (male Sprague-Dawley rats): 293 ± 86 nmol/g | ATP, Heart (male Sprague-Dawley rats): 2782 ± 868 nmol/g | ATP, Kidney (male Sprague-Dawley rats): 515 ± 44 nmol/g | ATP, Liver (male Sprague-Dawley rats): 458 ± 57 nmol/g | ATP, Lung (male Sprague-Dawley rats): 418 ± 18 nmol/g | Glucose, Blood (male Sprague-Dawley rats): 4.8 ± 0.3 µmol/g | Glucose, Heart (male Sprague-Dawley rats): 10.1 ± 1.7 µmol/g | Glucose, Kidney (male Sprague-Dawley rats): 3.4 ± 1.1 µmol/g | Glucose, Liver (male Sprague-Dawley rats): 21.7 ± 9.7 µmol/g | Glucose, Lung (male Sprague-Dawley rats): 4.1 ± 0.5 µmol/g | Glycogen, Blood (male Sprague-Dawley rats): 117 ± 26 µmol/g | Glycogen, Brain (male Sprague-Dawley rats): 1400 ± 372 nmol/g | Glycogen, Heart (male Sprague-Dawley rats): 4320 ± 946 nmol/g | Glycogen, Kidney (male Sprague-Dawley rats): 211 ± 44 µmol/g | Glycogen, Liver (male Sprague-Dawley rats): 778 ± 98 µmol/g | Glycogen, Lung (male Sprague-Dawley rats): 634 ± 133 µmol/g | Lactate, Blood (male Sprague-Dawley rats): 1.68 ± .06 µmol/g | Lactate, Brain (male Sprague-Dawley rats): 7.82 ± .20 µmol/g | Lactate, Heart (male Sprague-Dawley rats): 10.84 ± 2.67 µmol/g | Lactate, Kidney (male Sprague-Dawley rats): 3.10 ± .21 µmol/g | Lactate, Liver (male Sprague-Dawley rats): 3.36 ± .20 µmol/g | Lactate, Lung (male Sprague-Dawley rats): 2.24 ± .29 µmol/g | cytoprotective effect at 3.5 mM Ca2+ (rat hepatocytes [8]; 3.5 mM Ca2+): eliminated the cytoprotective effect | protection of rat hepatocytes from toxic effects of drugs (rat hepatocytes [8]; Ca2+ free medium): protected from the toxic effects of drugs | alpha-TS detection in tissue [9]: could not be detected | tumor regression (epidermoid carcinomas): dramatic regression

CC(C)CCC[C@@H](C)[C@H]1CC[C@H]2[C@@H]3CC=C4C[C@@H](OC(=O)CCC(=O)O)CC[C@]4(C)[C@H]3CC[C@]12C [Cholesteryl Succinate tris salt]
Survival Time (L1210 leukemia cells [10]): 6.8 ± 0.4 days
